# From article PMC5201331, “Subchronic Toxicities of HZ1006, a Hydroxamate-Based Histone Deacetylase Inhibitor, in Beagle Dogs and Sprague-Dawley Rats” (International Journal of Environmental Research and Public …, 2016)
# How the values were obtained:
# Beagle dogs [1] = assay: Subchronic toxicity test in Beagle dogs: clinical observation; type: in vivo; details: for Frequencies of Diarrhea / Frequencies of Vomiting: beagle, dog, in vivo, po, 42 days
# Protocol: (§1) HZ1006 was administered orally to dogs (four/sex/group) at doses of 80, 40, 20, 5 and 0 (control) mg/kg/day, and the dosage volume was 2 mL/kg. The dogs received test doses with the exact amounts on a weekly basis based on current body weights. […] The other dogs in the above groups were dissected on the planned days. For the other groups, half of the dogs were anatomized on d28 and the remaining half on d42.
# Clinical symptoms and mortality were examined at least twice daily during the 42-day period, which included any changes in reaction to treatment, behavior, illness, food consumption, and body weight. Breathing rates, rectal temperature and pupil changes in the Beagle dogs were assessed once every 2 weeks.
# Beagle dogs [2] = assay: Subchronic toxicity test in Beagle dogs: histopathology; type: in vivo; details: after 28 days
# Protocol: as §1
# After euthanasia, the following organs or tissues were isolated from the dogs and rats: skin, abnormal lesions, spleen, mammary glands, jejunum, pancreas, ileum, duodenum, stomach, colon, cecum, lymph nodes, mesenteric salivary glands, liver, submandibular lymph nodes, thymus, sternum, lungs, heart, esophagus, trachea, tongue, thyroid with parathyroid gland, sciatic nerve, aorta, femurs, skeletal muscle, pituitary gland, brain, kidneys, eyes, urinary bladder, adrenal glands, uterus, ovaries, testes, epididymis and prostate. The weights of the animal organs, such as the liver, spleen, heart, thymus, brain, lungs, adrenal glands, kidneys, uterus, ovaries, epididymis and testes, were tested using an electronic balance. The organs or tissues were fixed using 10% neutral buffered formalin and were then gradient dehydrated, embedded, sectioned, and stained with routine hematoxylin-eosin prior to histopathological observations.
# [3] = Toxicokinetics in SD rats; type: in vivo, Sprague-Dawley (SD) rats; details: for AUC(0-inf) / Cmax / Tmax / half-life: both sexes, Sprague-Dawley, rat, plasma, po, SD rats; for accumulation coefficient R: rats, after 28 days compared with d1
# Protocol: The rats that were judged suitable for the subchronic toxicity study were randomly divided into four groups (10 rats/sex/group). The rats received the test sample by gavage once daily for 28 days. HZ1006 was administered to the rats at doses of 120, 60, 20 and 0 (control) mg/kg, and the dosage volume was 5 mL/kg. Half of the 80 rats (half male and half female) were selected randomly according to body weight and dissected at d28. The remaining rats were dissected at […]. The dogs' blood samples were obtained on the 1st day, the 14th day and the last day (d28) of dosage for plasma HZ1006 content analyses at 0 (1st day only), 1/6, 0.5, 1, 2, 4, 8, 12 and 24 h after dosing, and the blood samples of the rats were acquired on the 1st day and 28th day at the same time as those of the dogs, which were handled and analyzed according to the procedure reported by Zhang et al..
# [4] = 20 mg/kg/day, 20 mg/kg/day oral, 28 days
# [5] = 20 mg/kg/day, 20 mg/kg/day oral, single
# [6] = 60 mg/kg/day, 60 mg/kg/day oral, 28 days
# [7] = 60 mg/kg/day, 60 mg/kg/day oral, single
# [8] = 120 mg/kg/day, 120 mg/kg/day oral, 28 days
# [9] = 120 mg/kg/day, 120 mg/kg/day oral, single
structure (smiles),measurement,setting,value
CCCCCCCNc1cc(/C=C/C(=O)NO)ccc1OCCN(CC)CC [HZ1006],mortality,"Beagle dogs [1]; dogs, 5-80 mg/kg/day oral, ♀6 d8 and ♀8 d10 (80 mg/kg), ♀28 d16 (40 mg/kg)",Three dogs died during the study
same,Frequencies of Diarrhea,"Beagle dogs [1]; female, 5 mg/kg/day",0 days
same,Frequencies of Vomiting,"Beagle dogs [1]; female, 5 mg/kg/day",0 days
same,Frequencies of Diarrhea,"Beagle dogs [1]; female, 20 mg/kg/day",0 days
same,Frequencies of Diarrhea,"Beagle dogs [1]; male, 5 mg/kg/day",0 days
same,Frequencies of Vomiting,"Beagle dogs [1]; male, 5 mg/kg/day",0 days
same,Frequencies of Diarrhea,"Beagle dogs [1]; male, 20 mg/kg/day",0 days
same,Bone marrow of sternum: decrease in hematopoietic cell numbers (incidence/number examined),Beagle dogs [2]; 5 mg/kg/day oral,0/4
same,Epididymis: lack of mature sperm and secretions in the epididymal lumen as well as decrease of epididymal lumen size (incidence/number examined),Beagle dogs [2]; 5 mg/kg/day oral,0/2
same,Lung: large confluent bronchopneumonia (incidence/number examined),Beagle dogs [2]; 5 mg/kg/day oral,0/4
same,"Prostate: reduction in numbers and size, thinner epithelium, narrowing of the glandular cavity of prostatic acini (incidence/number examined)",Beagle dogs [2]; 5 mg/kg/day oral,0/2
same,Testis: Reduction in numbers and types of spermatogenic cells (incidence/number examined),Beagle dogs [2]; 5 mg/kg/day oral,0/2
same,Epididymis: lack of mature sperm and secretions in the epididymal lumen as well as decrease of epididymal lumen size (incidence/number examined),Beagle dogs [2]; 20 mg/kg/day oral,0/2
same,Lung: large confluent bronchopneumonia (incidence/number examined),Beagle dogs [2]; 20 mg/kg/day oral,0/4
same,"Prostate: reduction in numbers and size, thinner epithelium, narrowing of the glandular cavity of prostatic acini (incidence/number examined)",Beagle dogs [2]; 20 mg/kg/day oral,0/2
same,Testis: Reduction in numbers and types of spermatogenic cells (incidence/number examined),Beagle dogs [2]; 20 mg/kg/day oral,0/2
same,Bone marrow of sternum: decrease in hematopoietic cell numbers (incidence/number examined),Beagle dogs [2]; 40 mg/kg/day oral,2/4
same,Epididymis: lack of mature sperm and secretions in the epididymal lumen as well as decrease of epididymal lumen size (incidence/number examined),Beagle dogs [2]; 40 mg/kg/day oral,2/2
same,Lung: large confluent bronchopneumonia (incidence/number examined),Beagle dogs [2]; 40 mg/kg/day oral,2/4
same,"Prostate: reduction in numbers and size, thinner epithelium, narrowing of the glandular cavity of prostatic acini (incidence/number examined)",Beagle dogs [2]; 40 mg/kg/day oral,2/2
same,Testis: Reduction in numbers and types of spermatogenic cells (incidence/number examined),Beagle dogs [2]; 40 mg/kg/day oral,2/2
same,Bone marrow of sternum: decrease in hematopoietic cell numbers (incidence/number examined),Beagle dogs [2]; 80 mg/kg/day oral,3/4
same,Epididymis: lack of mature sperm and secretions in the epididymal lumen as well as decrease of epididymal lumen size (incidence/number examined),Beagle dogs [2]; 80 mg/kg/day oral,2/2
same,Lung: large confluent bronchopneumonia (incidence/number examined),Beagle dogs [2]; 80 mg/kg/day oral,2/4
same,"Prostate: reduction in numbers and size, thinner epithelium, narrowing of the glandular cavity of prostatic acini (incidence/number examined)",Beagle dogs [2]; 80 mg/kg/day oral,2/2
same,Testis: Reduction in numbers and types of spermatogenic cells (incidence/number examined),Beagle dogs [2]; 80 mg/kg/day oral,2/2
same,AUC(0-inf),[3]; [4],32.7 ± 14.9 ng·h/mL
same,Cmax,[3]; [4],12.9 ± 9.5 ng/mL
same,Tmax,[3]; [4],0.34 ± 0.18 h
same,half-life,[3]; [4],7.32 ± 2.93 h
same,AUC(0-inf),[3]; [5],8 ± 9.1 ng·h/mL
same,Cmax,[3]; [5],7.5 ± 7.2 ng/mL
same,Tmax,[3]; [5],0.86 ± 1.54 h
same,half-life,[3]; [5],0.6 ± 0.37 h
same,AUC(0-inf),[3]; [6],114 ± 30.9 ng·h/mL
same,Cmax,[3]; [6],19.7 ± 3.3 ng/mL
same,Tmax,[3]; [6],0.28 ± 0.17 h
same,half-life,[3]; [6],7.57 ± 2.31 h
same,AUC(0-inf),[3]; [7],39.1 ± 15 ng·h/mL
same,Cmax,[3]; [7],13.3 ± 5.5 ng/mL
same,Tmax,[3]; [7],0.5 h
same,half-life,[3]; [7],6.83 ± 2.69 h
same,AUC(0-inf),[3]; [8],447 ± 282 ng·h/mL
same,Cmax,[3]; [8],57.5 ± 26.1 ng/mL
same,Tmax,[3]; [8],1.92 ± 3.07 h
same,half-life,[3]; [8],7.03 ± 1.9 h
same,AUC(0-inf),[3]; [9],69.9 ± 22.9 ng·h/mL
same,Cmax,[3]; [9],20.4 ± 3.8 ng/mL
same,Tmax,[3]; [9],0.45 ± 0.13 h
same,half-life,[3]; [9],6.51 ± 1.62 h
same,accumulation coefficient R,[3]; 20 mg/kg/day oral,16.8 ± 21.6
same,accumulation coefficient R,[3]; 60 mg/kg/day oral,3.2 ± 1.2
same,accumulation coefficient R,[3]; 120 mg/kg/day oral,6.3 ± 2.8
